Assay results from patent US20040226502A1, “Crystal structure of 2c-methyl-d-erythritol 2,4-cyclodiphosphate synthase” (priority 2001, published 2004).

Assays:
[1] = molecular target: T1, 2C-methyl-D-erythritol 2,4-cyclodiphosphate synthase (Escherichia coli, UniProt P62617); type: biochemical; conditions: E. coli enzyme, compound as substrate
T1 construct: His6 (from vector pQE30) (N); made in house; host or cells: E. coli XL1-Blue carrying pQEispF
Experimental: Assay mixtures contain 50 mM potassium phosphate, pH 7.0, 2 mM DTT, 2 mM MgCl2, 1 mM 4-diphosphocytidyl-2C-methyl-D-erythritol 2-phosphate and protein in a total volume of 100 μl. The mixtures are incubated at 37° C. for 20 min. The reactions are terminated by adding EDTA at a final concentration of 4 mM. The samples are centrifuged and the supernatant is analyzed by HPLC using a column of Multospher 120 RP 18-AQ-5 (4.6×250 mm, CS-Chromatographic Service Gmbh) that has been equilibrated and run with Gradient No. 3 at a flow rate 1 ml min^−1 (see below). The effluent is monitored photometrically (270 nm).
One unit of 2C-methyl-D-erythritol 2,4-cyclodiphosphate synthase activity is defined as the amount of protein which produced 1 μmol min^−1 of CMP.
Column: Multospher 120 RP 18-5 AQ, 250×4.6 mm, particle size 5 μm (CS: Chromatographic Service GmbH, Langerwehe, Germany)

[2] = molecular target: T1, 2C-methyl-D-erythritol 2,4-cyclodiphosphate synthase; assay: Crystal soaking and 3D structure determination of ligand complexes; type: binding, E. coli; conditions: for affinity for the protein (in words): from crystals/structures subs, sub2 and cyt
Experimental: The following substrate, substrate analoge and product complexes were determined in order to determine binding of these molecules to the synthase:
subop: a crystal soaked with 10 mM 4-diphosphocytidyl-2C-methyl-D-erythritol. The zinc atom the water or hydroxyl-group at the zinc is replaced by an oxygen of the beta-phosphate of the diphosphocytidyl-moiety.
subs: a crystal soaked with 10 mM 4-diphosphocytidyl-2C-methyl-D-erythritol 2-phosphate and 10 mM EDTA, that contains no zinc.
sub2: a crystal soaked with 10 mM 4-diphosphocytidyl-2C-methyl-D-erythritol 2-phosphate, that containes zinc and the products CMP and 2C-methyl-D-erythritol 2,4-cyclodiphosphate.
mgcdp2: a crystal soaked with 2 mM CDP and 5 mM MgCl2
cyt: a crystal soaked with 10 mM cytidine
These structures were determined using the nat2 structure as starting model. Initially a rigid body refinement was carried out followed by positional refinement. Then the substrate, substrate analoge or product molecules were build into the electron density of difference electron density maps, again followed by refinement of atom positions and B-factors.
Crystals containing the synthase and zinc were incubated for one hour with about 5 mM of a ligand in mother liquor containing 2M ammonium formate, 0.1M HEPES/NaOH at pH 7.0 and 20% D-(−)-2,3-butanediole (purchased from FLUKA) as a cryo-protectant. Crystals were mounted in a nylon-loop and flash frozen in a stream of nitrogen at 100Kelvin with an Oxford cryo stream. […] Diffraction data were measured at that temperature without any indication of radiation damage.
In order to obtain a crystal structure of 2C-methyl-D-erythritol 2,4-cyclodiphosphate synthase in complex with CDP, the synthase was crystallized according to example 8. A crystal of suitable size was then soaked in crystallization buffer (see example 8) further containing 5 mM CDP and 5 mM MgCl2.
The starting model for the determination of the structure of the complex was the structure of the synthase without a substrate analoge. […]

T1 sequence (P62617 whole entry): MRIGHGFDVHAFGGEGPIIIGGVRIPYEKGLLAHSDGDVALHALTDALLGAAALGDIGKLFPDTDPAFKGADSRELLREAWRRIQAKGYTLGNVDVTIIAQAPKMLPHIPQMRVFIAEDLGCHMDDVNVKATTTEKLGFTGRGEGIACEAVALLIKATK

Q: For C[C@@](CO)(OP(=O)(O)O)[C@H](O)COP(=O)(O)OP(=O)(O)OC[C@H]1O[C@@H](n2ccc(N)nc2=O)[C@H](O)[C@@H]1O [4-diphosphocytidyl-2C-methyl-D-erythritol 2-phosphate], which Km [1] is on record?
A: 37 µM

Q: What about the vmax [1] of the same compound?
A: 76 µmol/mg/min

Q: Nc1ccn([C@@H]2O[C@H](COP(=O)(O)O)[C@@H](O)[C@H]2O)c(=O)n1 [CMP, cytidine monophosphate] was tested. Which “affinity for the protein (in words)” value [2] did it give?
A: considerable affinity

Q: For Nc1ccn([C@@H]2O[C@H](COP(=O)(O)OP(=O)(O)O)[C@@H](O)[C@H]2O)c(=O)n1 [CDP, cytidine diphosphate], which “type of inhibition of the synthase (in words)” value ([2]; inferred from binding to a portion of the active site in the synthase-CDP complex) is on record?
A: competitive inhibitor

Q: Which “affinity for the protein (in words)” value [2] does the source give for Nc1ccn([C@@H]2O[C@H](CO)[C@@H](O)[C@H]2O)c(=O)n1 [cytidine] here?
A: considerable affinity
